Measurements taken from US20120156139A1, “ISOTOPICALLY LABELED NEUROCHEMICAL AGENTS AND USES THEROF FOR DIAGNOSING CONDITIONS AND DISORDERS” (priority 2009, published 2012).

What was measured:
Type in all cases: physicochemical
[1] = 13C T1 inversion recovery studies of L-DOPA, dopamine and partially deuterated dopamine; conditions: for T1 of C1 / T1 of C2 / T1 of C3: 13C at natural abundance, inversion recovery, 500 MHz scanner; for Elongation factor, T1 of C1 / Elongation factor, T1 of C2 / Elongation factor, T1 of C3: relative to dopamine HCl (A)
Experimental: Inversion recovery studies were carried out on protonated L-DOPA and dopamine and partially deuterated dopamine a in order to determine the ^13C T1 relaxation times in these molecules. The inversion recovery studies were carried out on a 500 MHz scanner (Varian), equipped with a 5 mm double tuned ^13C/^1H probe. Carbon-13 signals were detected in these molecules at natural abundance. The number of transitions ranged between 300 to 400 per relaxation delay (t) with a total scanning time of 12 to 48 hours. Dopamine HCl and L-DOPA were obtained from Sigma-Aldrich (Israel). [1,1,2,2-D4]-Dopamine HCl, and [D3-ring, 2,2-D2]-Dopamine were obtained from Cambridge Isotope Laboratories (MA, USA).

[2] = T1 of position 2 in [1,1,2,2-D4,2-13C]-choline at various magnetic field strengths and temperatures; conditions: for Liquid state T1 of position 2: DNP-enhanced liquid state sample, 14.1 T
Experimental: The T1 of position 2 in [1,1,2,2-D4,2-^13C]-choline was further investigated at various magnetic field strengths and temperatures. The liquid state T1 was measured on a DNP-enhanced liquid state sample at 14.1 T at approx. 37° C. (T1=48±2 sec) and at higher temperatures of between about 40 to about 50° C. (T1=56±4 sec).
In addition, thermal equilibrium T1 measurement was performed at 9.4 T at 37° C. (T1=41 sec). The low field T1 of [1,1,2,2-D4,2-^13C]-choline was estimated by placing the enhanced sample in the fringe field of an unshielded 14.1 T magnet (n=2). From this experiment it was concluded that the low field T1 is long (>40 s) and that the T1 of the deuterated methylene carbon in choline is less affected by field strength.

[3] = 13C T1 inversion recovery studies of choline and deuterated cholines at 11.8 T; conditions: for Elongation factor, T1 of C1 / Elongation factor, T1 of C2: relative to choline Cl- (A)
Experimental: The data in Table 2 were obtained using a series of inversion recovery studies at 11.8 T which were carried out in order to determine the ^13C T1 relaxation times of a deuterated choline molecule and of a partially deuterated choline molecule [1,1,2,2-D4]-choline Cr. The T1 of the trimethyl amine position in the fully deuterated choline molecule was 28 sec, which represented an approximate 8 fold elongation factor compared to the native choline molecule in which the trimethyl amine positions are protonated. Inversion recovery studies were carried out on a 500 MHz scanner (Varian), equipped with a 5 mm double tuned ^13C/^1H probe. Carbon-13 signals were detected in these molecules at natural abundance. The number of transitions ranged between 300 to 400 per relaxation delay (r) with a total scanning time of 12 to 67 hours due to a relaxation delay of 130 sec. The data were fitted to the standard inversion recovery equation. The possible effect of concentration on T1 was investigated in a concentration range of 20 mM to […], no significant effect of concentration on T1 was found in this concentration range. Choline Cl^− and [1,1,2,2-D4]-Choline CU were obtained from Sigma-Aldrich (Israel). Choline-D13 Br^− (fully deuterated) was obtained from Cambridge Isotope Laboratories (MA, USA).

[4] = T1 values of additional deuterated compounds
[5] = 13C at natural abundance, inversion recovery, 11.8 T

SMILES	T1 of C1 [1] [s]	T1 of C2 [1] [s]	T1 of C3 [1] [s]	T1 of C1 [3, 5] [s]	T1 of C2 [3, 5] [s]	further results
N[C@@H](Cc1ccc(O)c(O)c1)C(=O)O [L-DOPA (non deuterated), L-DOPA]	2.3	2.3	3.9			
[2H]C([2H])(O)[13C]([2H])([2H])[N+](C)(C)C [[1,1,2,2-D4,2-^13C]-choline]						Thermal equilibrium T1 ([2]; 9.4 T, 37 °C): 41 s; Liquid state T1 of position 2 ([2]; about 40 to about 50 °C): 56 ± 4 s; Liquid state T1 of position 2 ([2]; approx. 37 °C): 48 ± 2 s; Low field T1 ([2]; enhanced sample in the fringe field of an unshielded 14.1 T magnet, n=2, estimated): > 40 s
[2H]C([2H])(O)C([2H])([2H])[N+](C)(C)C.[Cl-] [[1,1,2,2-D4]-choline Cl^−]				29.1	34.9	Elongation factor, T1 of C1 ([3]; 11.8 T): 5.6; Elongation factor, T1 of C2 ([3]; 11.8 T): 7.1
Cl.[2H]C([2H])(N)C([2H])([2H])c1ccc(O)c(O)c1 [[1,1,2,2-D4]-dopamine HCl]	8.7	9.3	6.3			Elongation factor, T1 of C1 [1]: 7.9; Elongation factor, T1 of C2 [1]: 9.3; Elongation factor, T1 of C3 [1]: 1.0
[2H]C([2H])(NC(=N)N)C([2H])([2H])C([2H])([2H])[C@]([2H])(N)C(=O)O [[2,3,3,4,4,5,5-D7]-arginine, [2,3,3,4,4,5,5-D7]-arginine: NH2C(NH)NHCD2CD2CD2CD(NH2)CO2H]						T1 of carbons at positions 2, 3, 4, and 5 [4]: ~8 s
[2H]c1c([2H])c([2H])c2c(C([2H])([2H])[C@]([2H])(N)C(=O)O)c[nH]c2c1[2H] [[D7]-L-tryptophan, [D7]-L-tryptophan: C6D4C(CD2-CD(NH2)COOH)CH—NH]						T1 of position 10 ([4]; dissolved in H2O and 15% D2O (54.5 mM), 11.8 T): ~13 s
Cl.NCCc1ccc(O)c(O)c1 [dopamine HCl]	1.1	1.0	6.4			

Further lines, with some results ahead:

T1 of C1 [1] [s]	T1 of C2 [1] [s]	T1 of C3 [1] [s]	T1 of C1 [3, 5] [s]	T1 of C2 [3, 5] [s]	SMILES	further results
1.0	4.4	5.4			Cl.[2H]c1c([2H])c(C([2H])([2H])CN)c([2H])c(O)c1O [[D3 ring,2,2-D2]-dopamine HCl]	Elongation factor, T1 of C1 [1]: 1.0; Elongation factor, T1 of C2 [1]: 4.4; Elongation factor, T1 of C3 [1]: 0.8
			32.0	32.9	[2H]C([2H])(O)C([2H])([2H])[N+](C([2H])([2H])[2H])(C([2H])([2H])[2H])C([2H])([2H])[2H].[Br-] [[D13]-choline Br^−]	T1 of the trimethyl amine position [3, 5]: 28 s; Elongation factor of T1 of the trimethyl amine position ([3]; compared to the native choline molecule with protonated trimethyl amine positions): ~8 fold; Elongation factor, T1 of C1 ([3]; 11.8 T): 6.2; Elongation factor, T1 of C2 ([3]; 11.8 T): 6.7
			5.2	4.9	C[N+](C)(C)CCO.[Cl-] [choline Cl^−]	
